The text below walks through data of patent publication US11806326B2, “Methods for dopamine modulation in human neurologic diseases” (priority 2018, dated 2023).

Structures are written as SMILES. Read-outs that look alike come from different tables or passages of the source. A value given as a limit tells only on which side of the number the result lay.

Data set [1] deals with tyrosine hydroxylase. Particulars: cited from earlier work.
Data set [2] concerns the target T1, tyrosine hydroxylase (Bos taurus, UniProt P17289).
T1 construct: in bovine adrenal gland preparations; from tissue; host or cells: bovine (beef) adrenal gland
T1 sequence (P17289 1-491): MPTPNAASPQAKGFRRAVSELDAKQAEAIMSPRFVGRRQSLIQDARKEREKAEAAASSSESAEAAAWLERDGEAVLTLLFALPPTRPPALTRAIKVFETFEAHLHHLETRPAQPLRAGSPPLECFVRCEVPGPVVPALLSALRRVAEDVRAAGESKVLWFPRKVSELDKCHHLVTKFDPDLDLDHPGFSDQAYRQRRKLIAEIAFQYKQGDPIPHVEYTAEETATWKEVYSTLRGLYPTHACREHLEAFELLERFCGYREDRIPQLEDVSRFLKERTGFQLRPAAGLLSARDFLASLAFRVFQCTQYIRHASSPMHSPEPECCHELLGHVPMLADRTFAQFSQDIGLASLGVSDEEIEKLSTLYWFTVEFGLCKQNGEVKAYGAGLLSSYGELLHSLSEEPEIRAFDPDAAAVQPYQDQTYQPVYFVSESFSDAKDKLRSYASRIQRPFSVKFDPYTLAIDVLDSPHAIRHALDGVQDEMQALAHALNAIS
Particulars: cited from earlier work.

Data set [3] concerns the target tyrosine hydroxylase (Homo sapiens, UniProt P07101). Particulars: cited from earlier work.
Data set [4] concerns dopaminergic iPS cells originating from DJ-1 homozygous Parkinson's patients. As to the kind of experiment: Chronic inhibition of dopamine synthesis in dopaminergic iPS cells from DJ-1 homozygous Parkinson's patients. Format: cell-based, human. Particulars: chronic AMPT treatment, FIG. 5.
For data set [5] the following is noted: delivered orally, cited from earlier work.
The subject of data set [6] is spontaneously hypertensive rats. Particulars: cited from earlier work.
Setting [7] is: Table 1A, concentration 10^−4 M.
The mark [8] stands for this setting: Table 1B, catecholamine analogs inhibiting tyrosine hydroxylase, read-out: Concentration for 50% Inhibition.
The mark [9] stands for this setting: Table 1B, concentration 10^−4 M.
[10] abbreviates: Table 1A, amino acid analogs inhibiting tyrosine hydroxylase, read-out: Concentration for 50% Inhibition.

Chain of tyrosine hydroxylase (Homo sapiens, UniProt P07101) (P07101 whole entry): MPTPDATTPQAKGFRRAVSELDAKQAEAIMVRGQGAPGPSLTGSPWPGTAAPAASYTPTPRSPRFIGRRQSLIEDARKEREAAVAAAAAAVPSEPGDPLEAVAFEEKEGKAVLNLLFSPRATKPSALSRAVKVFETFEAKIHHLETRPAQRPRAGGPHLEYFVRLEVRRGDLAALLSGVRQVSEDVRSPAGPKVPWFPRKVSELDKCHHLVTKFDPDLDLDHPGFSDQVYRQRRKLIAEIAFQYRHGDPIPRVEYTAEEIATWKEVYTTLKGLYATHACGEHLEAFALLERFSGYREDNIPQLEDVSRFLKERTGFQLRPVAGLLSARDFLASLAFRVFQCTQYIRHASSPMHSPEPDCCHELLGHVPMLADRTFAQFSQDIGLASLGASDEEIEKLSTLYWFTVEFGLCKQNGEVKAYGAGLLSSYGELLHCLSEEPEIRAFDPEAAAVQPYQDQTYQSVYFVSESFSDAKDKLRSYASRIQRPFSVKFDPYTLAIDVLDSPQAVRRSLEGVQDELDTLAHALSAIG

The % Inhibition is the drop in the measured response relative to a control, in per cent. With `N[C@H](Cc1c[nH]c2ccccc12)C(=O)O` [D-tryptophan], the “% Inhibition” value with tyrosine hydroxylase [1] (setting [7]) is on record as 0%.
For `NC(=O)Cc1ccc(O)c(O)c1` [3,4-dihydroxyphenyl-acetamide], the IC50 at tyrosine hydroxylase [2] (setting [8]) is 1000 µM.
For `N[C@H](Cc1ccc(O)c(O)c1)C(=O)O` [D-dopa], the “% Inhibition” value in the data set with tyrosine hydroxylase [1] (setting [9]) is recorded as 0%.
For `N[C@@H](Cc1ccc(O)c(O)c1)C(=O)O` [L-dopa], the “% Inhibition” value in the data set on tyrosine hydroxylase [1] (setting [9]) was 68%.
On to `NCCc1ccc(O)c(O)c1` [dopamine], for which the “% Inhibition” value in the data set with tyrosine hydroxylase [1] (setting [9]) is 56%.
Consider `CC(N)(Cc1ccc(O)c(Br)c1)C(=O)O` (racemic) [3-bromo-α-methyl-DL-tyrosine], for which the IC50 on tyrosine hydroxylase [2] (setting [10]) is 1.5 µM.
As to `C[C@@](N)(Cc1ccc(O)c(O)c1)C(=O)O` [α-methyl-3,4-dhydroxy-D-phenylalanine], the IC50 on tyrosine hydroxylase [2] (setting [8]) was above 8000 µM.
For `N[C@H](Cc1ccccc1)C(=O)O` [D-phenylalanine], the “% Inhibition” value in the data set on tyrosine hydroxylase [1] (setting [7]) was 7%. Moreover, the IC50 on tyrosine hydroxylase [2] (setting [10]) was above 1000 µM.
With `CCCC(C(N)=O)c1ccc(O)c(O)c1` (stereo not drawn) [3,4-dihydroxyphenyl-propyl-acetamide], the “% Inhibition” value in the data set on tyrosine hydroxylase [1] (setting [9]) is 84%. Also, on tyrosine hydroxylase [2] (setting [8]), the IC50 was 20 µM.
Turning to `CC(N)(Cc1ccc(O)c(I)c1)C(=O)O` (racemic) [3-iodo-α-methyl-DL-tyrosine], the IC50 on tyrosine hydroxylase [2] (setting [10]) is 0.3 µM.
Consider `N[C@@H](Cc1cc(Br)c(O)c(Br)c1)C(=O)O` [3,5-dibromo -L-tyrosine], for which the IC50 on tyrosine hydroxylase [2] (setting [10]) was 500 µM.
As for `C[C@H]1O[C@@H](c2ccc3c(c2O)C(=O)C2=C(C3=O)[C@@]3(O)C(=O)C[C@](C)(O)C[C@@]3(O)C=C2)C[C@@H](O)[C@@H]1O` [aquayamycin], on tyrosine hydroxylase [3] (compared with 3-iodo-α-methyl-DL-tyrosine), the “potency as tyrosine hydroxylase inhibitor (in words)” value is “near that reported for 3-iodo-α-methyl-DL-tyrosine”.
As for `N[C@@H](Cc1ccc(O)c(Cl)c1)C(=O)O` [3-chloro-L-tyrosine], at tyrosine hydroxylase [2] (setting [10]), the IC50 is 10 µM.
Turning to `N[C@@H](Cc1ccc(O)c(I)c1)C(=O)O` [3-iodo-L-tyrosine], the IC50 at tyrosine hydroxylase [2] (setting [10]) was 0.5 µM.
Take `CNC[C@H](O)c1ccc(O)c(O)c1` [D-epinephrine]: the “% Inhibition” value with tyrosine hydroxylase [1] (setting [9]) is 47%.
Turning to `COc1ccc(CC(C)(N)C(=O)O)cc1Cl` (racemic) [3-chloro-4-methoxy-α-methyl-DL-phenylalanine], the IC50 on tyrosine hydroxylase [2] (setting [10]) was 500 µM.
On to `CC(N)(Cc1ccc(O)c(F)c1)C(=O)O` (racemic) [3-fluoro-α-methyl-DL-tyrosine], for which, at tyrosine hydroxylase [2] (setting [10]), the IC50 is 200 µM.
For the compound `NC[C@H](O)c1ccc(O)c(O)c1` (racemic) [DL-norepinephrine], in the data set on tyrosine hydroxylase [1] (Table 1B, concentration 2 × 10^−4 M), the “% Inhibition” value is given as 53%.
`N[C@H](Cc1ccc(O)c(O)c1)C(=O)O` [3,4-hydroxy-D-phenylalanine]: on tyrosine hydroxylase [2] (setting [8]), the IC50 was above 4000 µM.
Turning to `N[C@@H](Cc1c[nH]c2ccccc12)C(=O)O` [L-tryptophan], the “% Inhibition” value with tyrosine hydroxylase [1] (setting [7]) was 50%. The IC50 on tyrosine hydroxylase [2] (setting [10]) is above 1000 µM.
Turning to `NC(Cc1ccc(F)cc1)C(=O)O` (racemic) [DL-p-fluoro-phenylalanine], the “% Inhibition” value with tyrosine hydroxylase [1] (setting [7]) is 61%.
With `C[C@](N)(Cc1ccc(O)c(O)c1)C(=O)O` [α-methyl-3,4-dhydroxy-L-phenylalanine], on tyrosine hydroxylase [2] (setting [8]), the IC50 was 1500 µM.
`CC(N)(Cc1ccc(O)c(Cl)c1)C(=O)O` (racemic) [3-chloro-α-methyl-DL-tyrosine]: the IC50 on tyrosine hydroxylase [2] (setting [10]) was 5 µM.
For `CNC[C@H](O)c1ccc(O)c(O)c1` [L-epinephrine], in the data set on tyrosine hydroxylase [1] (setting [9]), the “% Inhibition” value is recorded as 35%.
For `CC(N)(Cc1cccc(O)c1)C(=O)O` (racemic) [α-methyl-m-DL-tyrosine], the “% Inhibition” value in the data set with tyrosine hydroxylase [1] (Table 1A, concentration 2 × 10−4 M) is 92%. The IC50 on tyrosine hydroxylase [2] (setting [10]) was above 1000 µM.
In the case of `N[C@@H](Cc1ccccc1)C(=O)O` [L-phenylalanine], in the data set on tyrosine hydroxylase [1] (setting [7]), the “% Inhibition” value is given as 78%. In addition, the IC50 on tyrosine hydroxylase [2] (setting [10]) is 200 µM.
In the case of `NC[C@@H](O)c1ccc(O)c(O)c1` [L-norepinephrine], the IC50 on tyrosine hydroxylase [2] (setting [8]) was 1000 µM.
In the case of `C[C@@](N)(Cc1ccc(O)cc1)C(=O)O` [α-methyl-D-tyrosine], on tyrosine hydroxylase [2] (setting [10]), the IC50 is above 1000 µM.
Take `C[C@](N)(Cc1ccc(O)cc1)C(=O)O` [α-methyl-L-tyrosine]: the “% Inhibition” value in the data set on tyrosine hydroxylase [1] (setting [7]) is 86%. Moreover, the “inhibition of tyrosine hydroxylase” value with tyrosine hydroxylase [1] (concentration of 10^−4M, guinea pig brain particle preparations) is on record as 86%. For the same compound, in data set [4], the “deposition of α-synuclein” value is on record as “blunted deposition of α-synuclein”, the “levels of oxidized dopamine” value is recorded as “lower levels of oxidized dopamine” and the oxidative stress entry is “reduced oxidative stress”. For the same compound, the IC50 at tyrosine hydroxylase [2] (bovine adrenal gland preparations, read-out: concentration inhibiting tyrosine hydroxylase by 50%) is 25 µM. In data set [5] (alpha-methyl-dopa, alpha-methyl-dopamine, alpha-methyl-norepinephrine), the “metabolites recovered in the urine” value is “relatively little”. Besides, in data set [5], the oral absorption was around 69%.
For the compound `CCC[C@H]1CCC(=C2C(=O)CCC2=O)O1` [Oudenone, oudenone], on tyrosine hydroxylase [3] (directly measured), the “tyrosine hydroxylase inhibition (in words)” value was “inhibit tyrosine hydroxylase”. In data set [6], the “effect on blood pressure” value was “reduce blood pressure”.
With `CC(N)(Cc1ccccc1)C(=O)O` (racemic) [α-methyl-DL-phenylalanine], the IC50 at tyrosine hydroxylase [2] (setting [10]) was 80 µM.
Turning to `N[C@@H](Cc1ccc(O)c(O)c1)C(=O)O` [3,4-hydroxy-L-phenylalanine], the IC50 at tyrosine hydroxylase [2] (setting [8]) was 2000 µM.
